Test results from patent US20240390317A1, “COMBINATION TREATMENT AND/OR PREVENTION OF CARDIAC DISEASES IN NON-HUMAN MAMMALS COMPRISING ONE OR MORE SGLT-2 INHIBITORS AND PIMOBENDAN AND/OR TELMISARTAN” (BOEHRINGER INGELHEIM VETMEDICA GMBH, priority 2023, published 2024).

Assays:
[1] = system: canine atrial fibrillation model; details: cited from earlier work
[2] = system: mitral regurgitation-induced myocardial dysfunction; details: cited from earlier work
[3] = system: adults with heart failure and reduced or preserved ejection fraction, with and without diabetes; details: cited from earlier work
[4] = system: non-diabetic heart failure; details: by enhancing myocardial energetics; cited from earlier work
[5] = system: dogs with a moderate degree of tachypacing-induced heart-failure [dilated cardiomyopathy (DCM) model]; assay: Example 17 laboratory study (DCM model); format: in vivo, beagle dogs; details: for creatinine levels / enhancements of diastolic function and performance (i.e., IVRT, E, E′-ave) / enhancements of values indicative of systolic function and performance (i.e., EF, FAS, Simpson EF, s′ wave, LVOT VTI, SV, CO, or SAX Strain) / urine glucose: tachypacing DCM model, three-month dosing
Description: A laboratory study is conducted to evaluate the effects of the SGLT2 inhibitor Velagliflozin with Pimobendan compared to Pimobendan alone and Velagliflozin alone in dogs with a moderate degree of tachypacing-induced heart-failure [dilated cardiomyopathy (DCM) model]. The study involves 12 beagle dogs, divided into three treatment groups, each containing four dogs, in two dosing phases (totaling eight dogs per group). The treatment groups are Pimobendan, Velagliflozin, and a combination of both (Pimobendan+Velagliflozin).
The dogs are implanted with a pacing generator in the right ventricle (Abbott-Johnson K et al., 2021) and subjected to two rounds of dosing for three months each. The heart failure is induced to a moderate degree (EF=˜40-45%) before the start of each dosing round, with the pacing rate maintained throughout the three-month dosing period. After each round, a washout period of about 21-28 days is given before the next round of dosing begins.
Various data are collected throughout the study, including 6-minute walk test, blood and urine analysis, and echocardiography data. The dogs undergo an anesthetized recovery procedure at the end of each three-month round, where systemic hemodynamics are recorded. A single dose of dobutamine is also administered to measure functional reserve at the end of each 3-month period.

[6] = system: Dogs With Mitral Valve Disease (MVD); assay: Example 16 exploratory clinical field trial, velagliflozin plus pimobendan vs pimobendan; format: in vivo, dog
Description: The described study is a prospective, baseline controlled, unblinded, open-label, multi-site exploratory clinical field trial. Client owned dogs diagnosed with MVD are randomized at different sites to either a pimobendan or a velagliflozin plus pimobendan treatment group. Eight dogs could be successfully enrolled. […] The clinical field trial is further ongoing.
The dogs that enter the study are evaluated regularly including a full physical examination including bodyweight, blood pressure, auscultation of the cardiovascular system, thoracic radiographs to assess heart size, pulmonary edema and congestion, standard echocardiography, ECG, blood and urine evaluation.
The cardiovascular history is evaluated assessing the date of MVD diagnosis and whether there is a history of heart failure. An owner questionnaire is compiled on a regular basis during the study to provide an overview on the overall condition of the dogs, the respiratory rate per minute at resting and the exercise tolerance during the last seven days of treatment.
The dogs included must be diagnosed with MVD stage B2 or stage C via physical examination and echocardiography. Variables of interest are all clinical parameters evaluated in addition to laboratory values, blood pressure, number of events (death or hospitalization for heart failure or euthanasia), the time-to-event duration, the adjustment of diuretic treatment, owner questionnaire data, x-ray results and overall disease progression (requiring additional, prohibited cardiac treatment).
During the ongoing field trial three dogs are receiving a combined velagliflozin (0.5 mg/kg bodyweight orally once daily) and pimobendan treatment (daily dose of 0.5 mg/kg bodyweight orally divided into two portions that are not necessarily equal).
During the ongoing field trial four dogs are receiving a pimobendan only treatment (daily dose of 0.5 mg/kg bodyweight orally divided into two portions that are not necessarily equal).

## Cc1ccc([C@@H]2O[C@H](CO)[C@@H](O)[C@H](O)[C@H]2O)cc1Cc1ccc(-c2ccc(F)cc2)s1 [canagliflozin, Canagliflozin]
[1]
  atrial remodeling: suppresses

## CCOc1ccc(Cc2cc([C@@H]3O[C@H](CO)[C@@H](O)[C@H](O)[C@H]3O)ccc2Cl)cc1 [dapagliflozin, Dapagliflozin]
[2]
  arrhythmogenesis: mitigates
  cardiac hemodynamics: improves

## OC[C@H]1O[C@@H](c2ccc(Cl)c(Cc3ccc(O[C@H]4CCOC4)cc3)c2)[C@H](O)[C@@H](O)[C@@H]1O [empagliflozin, Empagliflozin]
[3]
  risk for the composite endpoint of cardiovascular death or hospitalization due to heart failure: reduced
[4]
  adverse left ventricular remodeling: ameliorates

## COc1ccc(-c2nc3cc(C4=NNC(=O)CC4C)ccc3[nH]2)cc1 (stereo not shown) [pimobendan, 4,5-dihydro-6-[2-(4-methoxyphenyl)-1H-benzimidazol-5-yl]-5-methyl-3(2H)-pyridazinone]
[5]; for three months
  functional support with enhanced systolic and diastolic performance: clear and robust functional support
[5]
  creatinine levels: does not affect
  enhancements of diastolic function and performance (i.e., IVRT, E, E′-ave): ~20%
  enhancements of values indicative of systolic function and performance (i.e., EF, FAS, Simpson EF, s′ wave, LVOT VTI, SV, CO, or SAX Strain): ~30%
  urine glucose: does not affect
[6]; pimobendan only (0.5 mg/kg/day), first dog, Day 88, before: seven, progresses from moderate to severe disease state
  MINE score: eight
[6]; pimobendan only, first dog
  other parameters measured (i.e. heart murmur): mainly unchanged
[6]; pimobendan only, fourth dog, Day 42, Screening 1.88
  Echo Parameter LA/Ao: 1.61
[6]; pimobendan only, fourth dog, Day 42, Screening: eight
  MINE score: six
[6]; pimobendan only, fourth dog, Day 42, Screening: neutral
  overall condition (owner score): good
[6]; pimobendan only, fourth dog, Day 42, Screening: very poor
  exercise tolerance in the last 7 days (owner score): good
[6]; pimobendan only, second dog
  overall condition and exercise tolerance in the last 7 days (owner report): improvement
[6]; pimobendan only, second dog, Day 55, Screening 2.14
  Echo-Parameter LA/Ao: 1.96
[6]; pimobendan only, second dog, Day 55, stable, severely diseased
  MINE score (echocardiographic parameters): eight
[6]; pimobendan only, third dog, Day 48, Screening 1.60
  Echo-Parameter LA/Ao: 1.53
[6]; pimobendan only, third dog, Day 48, Screening: neutral
  overall condition of the owner score: good

## N#Cc1ccc([C@@H]2O[C@H](CO)[C@@H](O)[C@H](O)[C@H]2O)cc1Cc1ccc(C2CC2)cc1 [velagliflozin, Velagliflozin]
[5]
  creatinine levels: lower
  enhancements of diastolic function and performance (i.e., IVRT, E, E′-ave): little-to-no support
  enhancements of values indicative of systolic function and performance (i.e., EF, FAS, Simpson EF, s′ wave, LVOT VTI, SV, CO, or SAX Strain): little-to-no support
  urine glucose: elevated
